Reference: patent US11034742B2, “Peptides with antibiotic potential against Mycobacterium tuberculosis” (LINNANE PHARMA AB, priority 2017, dated 2021)
“Also recorded” adds a separate entry of the source. Like-named read-outs stand apart in the source and are kept apart here. Marks after values point to notes of the source that are not given here. Positions of bridges follow the written chain, without caps; N, C: chain ends. Residues, ends and D or L forms follow the SMILES beside them.

Columns and labels:
[1] = test system: M. tuberculosis H37Rv; test: Murine TB model, lung histology and immunohistochemistry; set-up: species or system BALB/c mice; details: mouse, in vivo
[2] = test system: primary human macrophages; test: Cytotoxicity, ATPlite (cellular ATP levels); format: cell-based; details: 100 μM, 24 hours
Protocol: (§1) Human venous blood mononuclear cells were obtained from healthy volunteers using a Lymphoprep density gradient (Axis-Shield, Oslo, Norway) according to the manufacturers instructions. To obtain pure monocytes, the cell suspension was applied to CD14 micro beads (MACS), washed and passed through magnetic column according to manufacturers description. The monocytes were counted (Sysmex), diluted in RPMI medium containing GM-CSF (50 ng/mL) and seeded in 96-well plates (10^5/well) for a week to differentiate into macrophages.
(§2) The variant antimicrobial peptide of SEQ ID NO: 3 cytotoxicity was further examined by PrestoBlue® and ATPlite™ assays. Primary macrophages were treated with 100 μM variant antimicrobial peptide of SEQ ID NO: 3 or 50 μM Staurosporine (S-4400, Sigma) for 24 hours. Cell viability was assessed with PrestoBlue® fluorescence (A13261, Thermo Scientific) and cellular ATP levels using ATPlite™ kit (#6016943, Perkin Elmer) compared to untreated control, according to the manufacturers' instructions.

[3] = target: T1, Cathepsin G (Homo sapiens, UniProt P08311); test: Protease sensitivity assay, Cathepsin G; format: in vitro ADME; details: 37° C., 6 h
T1 construct: purchased EMD Millipore
T1 sequence (P08311 21-244): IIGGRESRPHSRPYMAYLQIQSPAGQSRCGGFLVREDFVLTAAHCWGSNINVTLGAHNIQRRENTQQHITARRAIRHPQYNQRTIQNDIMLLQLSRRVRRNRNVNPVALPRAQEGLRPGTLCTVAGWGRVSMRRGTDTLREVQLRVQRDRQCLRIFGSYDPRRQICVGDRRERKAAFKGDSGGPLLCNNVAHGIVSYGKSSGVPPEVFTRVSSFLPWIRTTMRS
Protocol: (§3) The variant antimicrobial peptide of SEQ ID NO: 3 (1 μg) was incubated at 37° C. with human neutrophil elastase (HNE, 0.4 μg, 29 units/mg; Calbiochem (La Jolla, Calif.), Cathepsin G (0.4 μg, EMD Millipore) and human α-thrombin (0.4 μg Innovative Research) in a total volume of 20 μL for 6 h. Furthermore 2 μg of the variant antimicrobial peptide of SEQ ID NO: 3 was incubated with 0.4 μg of HNE for kinetic study of peptide degradations. The materials were analyzed on 10-20% precast SDS-PAGE Tris-Tricine gels (Life Technologies) and analyzed after staining with Coomassie Blue R-250. […]

[4] = test system: primary human macrophages; test: Cytotoxicity, MTT assay; format: cell-based; details: for macrophage viability (MTT): 6.3 μM peptide concentration; for toxicity to human cells / macrophages (in words): primary human macrophages
Protocol: as §1
(§4) Primary macrophages were prepared from whole blood (see above). The medium was replaced with fresh medium containing 0, 6.3, 12.5, 25 or 100 μM peptides and incubated for 0, 1, 4 and 24 h in 5% CO2 atmosphere. For cytotoxicity measurement, 10 μl 3-(4,5-dimethylthiazol-2-yl)-2,5 diphenyltetrazolium bromide (MTT) solution (Sigma) was added to each well according to manufacturers instructions, and analyzed in a spectrophotometer at 580 nm.

[5] = Cytotoxicity, MTT assay; format: cell-based, human; details: human, primary human monocyte-derived macrophages; 6.3 μM peptide concentration; read-out: macrophage viability (MTT)
Protocol: as §1, §4

[6] = target: T2, human α-thrombin (Homo sapiens, UniProt P00734); test: Protease sensitivity assay, α-thrombin; format: in vitro ADME; details: 37° C., 6 h
T2 construct: human α-thrombin (0.4 μg Innovative Research); purchased Innovative Research
Protocol: as §3

[7] = target: T3, human neutrophil elastase (HNE) (Homo sapiens, UniProt P08246); test: Protease sensitivity assay, HNE; format: in vitro ADME; details: isolated human neutrophil elastase (HNE), after 22 hours, 37° C., read-out: peptide breakdown by HNE
T3 construct: purchased Calbiochem (La Jolla, Calif.)
T3 sequence (P08246 30-267): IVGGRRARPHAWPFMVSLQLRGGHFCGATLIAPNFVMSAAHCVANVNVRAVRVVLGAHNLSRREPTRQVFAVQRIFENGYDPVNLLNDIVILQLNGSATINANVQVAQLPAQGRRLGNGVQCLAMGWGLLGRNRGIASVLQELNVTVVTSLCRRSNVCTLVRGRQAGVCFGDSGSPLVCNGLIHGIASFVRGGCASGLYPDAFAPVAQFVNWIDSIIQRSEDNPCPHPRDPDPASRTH
Protocol: as §3

[8] = test system: M. tuberculosis H37Rv and clinical isolate TB2016/268; format: cell-based, Mycobacterium tuberculosis
[9] = test system: M. tuberculosis H37Rv and TB2016/268; format: cell-based, Mycobacterium tuberculosis; details: gold-labelled peptide, 6.3 μM
[10] = test system: M. tuberculosis H37Rv; format: in vivo, BALB/c mice; details: 0.83 mg
[11] = test system: primary human macrophages; test: Cytotoxicity, PrestoBlue (reducing metabolites); format: cell-based; details: 100 μM, 24 hours
Protocol: as §1, §2

[12] = test system: M. tuberculosis; details: Table 1; from Schon et al. 2009; cited from earlier work

Row | SMILES | lung tissue damage, inflammation, bacterial and neutrophil counts (IHC, H&E) [1] | toxicity, cellular ATP levels (ATPlite) [2] | peptide degradation by Cathepsin G [3] | macrophage viability (MTT) [4] [%] | toxicity to human cells / macrophages (in words) [4] | viability at 6.3 µM [5] [%] | peptide degradation by human α-thrombin [6] | metabolised at 22 h [7] [%] | Mycobacterial killing efficiency [8] [%] | association of peptide with the mycobacterial membrane (TEM) [9] | lung CFU reduction vs control animals ([10]; five days of daily intra-tracheal treatment) [%] | lung CFU reduction vs control animals ([10]; three days of daily intra-tracheal treatment) [%] | toxicity, reducing metabolites (PrestoBlue) [11] | MIC (mg/L) [12] | MIC (μM) [12]
1 | CC[C@H](C)[C@@H]1NC(=O)[C@H](CO)NC(=O)[C@H](CCCCN)NC(=O)[C@@H]2CSSC[C@@H](C(=O)N[C@@H](Cc3ccc(O)cc3)C(=O)O)NC(=O)[C@H](CCCCN)NC(=O)[C@@H]3CSSC[C@H](NC(=O)[C@H](CCC(N)=O)NC(=O)[C@H]([C@@H](C)CC)NC(=O)[C@H](CC(=O)O)NC(=O)[C@H](CC(=O)O)NC(=O)[C@H](CCC(=O)O)NC(=O)[C@H](CO)NC(=O)[C@H](Cc4c[nH]c5ccccc45)NC(=O)[C@@H]4CCCN4C(=O)CNC(=O)[C@H](CC(N)=O)NC(=O)[C@@H](NC(=O)CNC(=O)[C@H](Cc4ccccc4)NC(=O)CN)CSSC[C@H](NC(=O)[C@H](Cc4ccc(O)cc4)NC(=O)CNC(=O)CNC(=O)[C@H](CCCCN)NC(=O)[C@H](Cc4ccc(O)cc4)NC(=O)CNC(=O)[C@H](CCCCN)NC1=O)C(=O)N[C@@H](C)C(=O)N[C@@H](CCCNC(=N)N)C(=O)NCC(=O)NCC(=O)N[C@@H](Cc1ccccc1)C(=O)N[C@@H](C(C)C)C(=O)N3)C(=O)N[C@@H](Cc1c[nH]cn1)C(=O)N[C@@H](CC(N)=O)C(=O)N[C@@H](Cc1c[nH]cn1)C(=O)N2 [SEQ ID NO: 3] (H-GFGCNGPWSEDDIQCHNHCKSIKGYKGGYCARGGFVCKCY-OH; disulfide 4-30, 15-37, 19-39 (inferred); N-terminus and C-terminus assumed) | less tissue damage, lower bacterial and neutrophil counts than infected controls; also recorded: low counts of both neutrophils and bacteria in the lungs | did not show any toxicity | only HNE showed peptide degradation | 87.5 | not Toxic to Human Cells | 87.5 | only HNE showed peptide degradation | ~50 | 73.8 | associated with the mycobacterial envelope within one hour of exposure and disrupted bacterial membranes; also recorded: associated with the mycobacterial membrane | 86 | 46 | did not show any toxicity | – | –
2 | NNC(=O)c1ccncc1 [Isoniazid] | – | – | – | – | – | – | – | – | – | – | – | – | – | 0.2* mg/L | 1.5* μM
3 | CC[C@H](C)[C@@H]1NC(=O)[C@H](C)NC(=O)[C@@H]2CSSC[C@H](NC(=O)CNC(=O)[C@H](Cc3ccccc3)NC(=O)CN)C(=O)N[C@@H](CC(N)=O)C(=O)NCC(=O)N3CCC[C@H]3C(=O)N[C@@H](Cc3c[nH]c4ccccc34)C(=O)N[C@@H](CO)C(=O)N[C@@H](CCC(=O)O)C(=O)N[C@@H](CC(=O)O)C(=O)N[C@@H](CC(=O)O)C(=O)N[C@@H]([C@@H](C)CC)C(=O)N[C@@H](CCC(N)=O)C(=O)N[C@H]3CSSC[C@H](NC(=O)[C@H](C(C)C)NC(=O)[C@H](Cc4ccccc4)NC(=O)CNC(=O)CNC1=O)C(=O)N[C@@H](CCCCN)C(=O)N[C@H](C(=O)N[C@@H](Cc1ccc(O)cc1)C(=O)O)CSSC[C@H](NC(=O)[C@H](Cc1c[nH]cn1)NC(=O)[C@H](CC(N)=O)NC(=O)[C@H](Cc1c[nH]cn1)NC3=O)C(=O)N[C@@H](CCCCN)C(=O)N[C@@H](CO)C(=O)N[C@@H]([C@@H](C)CC)C(=O)N[C@@H](CCCCN)C(=O)NCC(=O)N[C@@H](Cc1ccc(O)cc1)C(=O)N[C@@H](CCCCN)C(=O)NCC(=O)NCC(=O)N[C@@H](Cc1ccc(O)cc1)C(=O)N2 [SEQ ID NO: 4] (H-GFGCNGPWSEDDIQCHNHCKSIKGYKGGYCAIGGFVCKCY-OH; disulfide 4-30, 15-37, 19-39 (inferred); N-terminus and C-terminus assumed) | – | – | – | 86.3 | not Toxic to Human Cells | 86.3 | – | – | 74.8 | – | – | – | – | – | –
4 | CC[C@@H](CO)NCCN[C@@H](CC)CO [Ethambutol] | – | – | – | – | – | – | – | – | – | – | – | – | – | 5.0* mg/L | 24.5* μM
